This note sets out measurements from patent US20230053342A1, “IMIDAZOLIDINONE COMPOUND, PREPARATION METHOD THEREFOR AND USE THEREOF” (BETTA PHARMACEUTICALS CO., LTD, priority 2019, published 2023).

The target of one data set is PI3Kα (Homo sapiens, UniProt P42336). The experiment in a line: Kinase experiment (ADP-Glo, luminescence), PI3Kα. Conditions: final concentration of ATP 10 μM; read-out: IC50 of compound to PI3K (nM) α. Type of data set: biochemical. As for the experimental part:
(§1) PI3Kα, PI3Kβ, PI3Kγ kinases undergo enzymatic reactions with their substrates ATP and PIP2:3PS, the amount of the product detected by ADP-Glo agent and luminescence method were used to reflect the enzymatic activities of PI3Kα, PI3Kβ, PI3Kγ (the final concentration of ATP is 10 μM). The above methods were used to test the inhibitory activity of certain compound of the present invention on PI3Kα, PI3Kβ and PI3Kγ kinase.
(§2) Agent: Basic kinase buffer (pH 7.5); PI3Kα, PI3Kβ, PI3Kγ kinase solutions; PIP2:3PS and ATP solutions; ADP-Glo kit (containing 10 mM MgCl2).
(§3) Wherein, the buffer composition: 50 mM Hepes (pH 7.2-7.5), 3 mM MgCl2, 1 mM EGTA, 0.03% CHAPS, 100 mM NaCl, 2 mM DTT; • Compound preparation: The tested compound was diluted to a specific concentration with 100% DMSO. • Process: 1) PI3Kα, PI3Kβ, or PI3Kγ protein solution were dispensed to a 384-well assay plate (6008280, PerkinElmer), and centrifuged at 1000 rpm for 1 minute. • 2) Tested compound, negative control DMSO or positive control BYL719 was dispensed to the above-mentioned 384-well assay plate with the kinase, centrifuged at 1000 rpm for 1 min, and incubated at 25° C. for 15 mins. • 3) PIP2:3PS&ATP solution was added to the above-mentioned 384-well assay plate, centrifuged at 1000 rpm for 1 min, incubated at 25° C. for 60 mins. • 4) 5 μL of ADP-Glo agent (10 mM MgCl2 contained) was transferred to the 384-well assay plate, centrifuged at 1000 rpm for 1 min, incubated at 25° C. for 40 mins. • 5) 10 μL of Detection agent was transferred to the 384-well assay plate, centrifuged at 1000 rpm for 1 min, incubated at 25° C. for 40 mins. • 6) RLU (Relative luminescence unit) value was measured by Envision multifunctional plate reader. The RLU value was used to characterize the degree of reaction between the enzyme and the substrate, and calculate the IC50 value. • 7) Data analysis:
(§4) Compound inhibition rate(% inh)=(negative control RLU-tested compound RLU)/(negative control RLU-positive control RLU)*100%
(§5) The IC50 (half inhibitory concentration) of the compound was obtained using the following nonlinear fitting formula:
(§6) Y=minimum inhibition rate+(max inhibition rate-minimum inhibition rate)/(1+10^((Log IC50−X)*slope)); wherein, X is the log value of the concentration of the tested compound, Y is the inhibition rate of tested compound(% inh).

In the next data set the target is PI3Kβ (Homo sapiens, UniProt P42338). The data set can be described thus: Kinase experiment (ADP-Glo, luminescence), PI3Kβ. Type of data set: biochemical. Conditions: final concentration of ATP 10 μM; read-out: IC50 of compound to PI3K (nM) β. As for the experimental part:
as §1, §2, §3, §4, §5, §6
In general terms: ADP-Glo first removes unused ATP, then detects ADP through luciferase.

For a further data set, the target named is PI3Kγ (Homo sapiens, UniProt P48736). The data set can be described thus: Kinase experiment (ADP-Glo, luminescence), PI3Kγ. Type of data set: biochemical. The conditions noted are these: final concentration of ATP 10 μM; read-out: IC50 of compound to PI3K (nM) γ. The protocol:
as §1, §2, §3, §4, §5, §6

In the next data set the test system is human tumor cells MCF-7. The data set can be described thus: Cell proliferation assay (CellTiter Glo), MCF-7. Type of data set: cell-based. Conditions: MCF7, MCF-7 cells incubated for 120 h, read-out: IC50(μM) of compound on MCF cell. The protocol: (§7) Method: The anti-proliferative effects on human tumor cells MCF-7 and HGC27 of certain compounds of the present invention were evaluated by CellTiter Glo assay.
(§8) Detection method: MCF-7 cells were suspended in DMEM culture medium, the cell concentration of which was adjusted to 25000 cells/mL; HGC27 cells were suspended in RPMI-1640 culture medium, the cell concentration of which was adjusted to 5000 cells/mL. 100 μL of cell suspension was dispensed to a 96-well assay plate and placed in a CO2 incubator overnight. The tested compounds were dissolved in DMSO, and 3-fold derail dilution was performed to obtain 10-point concentrations. the 10-point concentrations of the tested compounds or or negative control was transferred to the well containing 100 μL of culture medium respectively, incubated at 37° C., 5% CO2, the HGC27 cells were incubated for 96 h, MCF-7 cells were incubated for 120 h. Then 100 μL of CellTiter-Glo agent was added to the above-mentioned 96-well assay plate, incubated at room temperature for 10 minutes to allow stable luminescence signal. VICTOR™ X5 instrument was used to record RLU (relative luminescence unit), and then calculate the IC50 values were calculated.
(§9) Compound inhibition rate(% inh)=100% −(tested compound RLU-blank control RLU)/(negative control RLU-blank control RLU)*100%
(§10) Blank control: blank culture medium, with no compound or cell;
as §5
(§11) Y=minimum inhibition rate+(max inhibition rate-minimum inhibition rate)/(1+10^((Log IC50−X)*slope)); wherein, X: the log value of the concentration of the tested compound; Y: the inhibition rate of the tested compound(% inh).

The next data set relates to human tumor cells HGC27. The experiment in a line: Cell proliferation assay (CellTiter Glo), HGC27. Conditions: HGC-27, HGC27 cells incubated for 96 h, read-out: IC50(μM) of ompound on HGC-27cell. Type of data set: cell-based. The protocol: as §7, §8, §9, §10, §5, §11
For orientation: Cellular ATP, detected with luciferase, serves as a proxy for viable cell number.

Data set [1] in a line: Pharmacokinetic test in male SD rats. Type of data set: in vivo. Conditions: rat, plasma; for clearance: intravenous injection, 2 mg/kg; for AUC / Cmax: po, gavage, 10 mg/kg. As for the experimental part:
Method: 42 male SD rats, weight: 150-300 g. Divided into 7 groups randomly, with 6 rats in each group. Among the 6 rats in each group, three of them were administrated a single intravenous injection of […] of the example compound, the other three were given intragastric administration of […] of the example compound, blood was collected from the orbital venous plexus at designated time points, plasma was separated, and stored in a −80° C. refrigerator for later use.
The protein of the resultant plasma was precipitated by acetonitrile, the supernatant was extracted, and mixed with water at the ratio of 1:1, took 10 μL of which for LC-MS/MS detection, and calculated the average was calculated.

A value given as a limit tells only on which side of the number the result lay.

PI3Kγ, sequence (P48736 whole entry): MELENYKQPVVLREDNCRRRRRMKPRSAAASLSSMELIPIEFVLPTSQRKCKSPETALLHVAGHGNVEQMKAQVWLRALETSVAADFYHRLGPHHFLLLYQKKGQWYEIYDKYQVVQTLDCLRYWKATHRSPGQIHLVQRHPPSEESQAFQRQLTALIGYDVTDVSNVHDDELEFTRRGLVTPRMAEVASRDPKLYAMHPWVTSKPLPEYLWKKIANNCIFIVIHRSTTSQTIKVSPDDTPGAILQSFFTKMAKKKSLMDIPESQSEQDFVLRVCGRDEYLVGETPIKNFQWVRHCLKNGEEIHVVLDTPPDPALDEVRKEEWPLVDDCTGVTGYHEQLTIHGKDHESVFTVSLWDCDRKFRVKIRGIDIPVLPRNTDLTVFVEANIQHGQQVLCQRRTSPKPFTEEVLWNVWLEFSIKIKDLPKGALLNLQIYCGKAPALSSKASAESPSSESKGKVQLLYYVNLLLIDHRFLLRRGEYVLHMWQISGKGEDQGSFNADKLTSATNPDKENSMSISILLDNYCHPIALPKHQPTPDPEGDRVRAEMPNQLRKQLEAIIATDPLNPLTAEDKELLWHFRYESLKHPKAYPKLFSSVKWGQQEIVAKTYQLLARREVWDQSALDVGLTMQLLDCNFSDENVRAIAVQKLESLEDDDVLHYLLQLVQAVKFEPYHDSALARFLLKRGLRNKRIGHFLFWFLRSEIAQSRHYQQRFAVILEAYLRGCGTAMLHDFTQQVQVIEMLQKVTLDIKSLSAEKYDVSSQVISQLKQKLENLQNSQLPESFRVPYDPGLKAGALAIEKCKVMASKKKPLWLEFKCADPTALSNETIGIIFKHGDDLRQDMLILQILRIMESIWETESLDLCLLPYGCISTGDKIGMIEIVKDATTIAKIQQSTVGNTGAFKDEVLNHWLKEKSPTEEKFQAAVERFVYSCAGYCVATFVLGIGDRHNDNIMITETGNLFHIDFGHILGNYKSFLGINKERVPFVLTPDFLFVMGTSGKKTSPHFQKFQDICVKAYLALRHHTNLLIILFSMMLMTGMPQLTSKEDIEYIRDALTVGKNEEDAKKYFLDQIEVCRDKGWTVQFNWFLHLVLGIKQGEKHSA
PI3Kα, sequence (P42336 whole entry): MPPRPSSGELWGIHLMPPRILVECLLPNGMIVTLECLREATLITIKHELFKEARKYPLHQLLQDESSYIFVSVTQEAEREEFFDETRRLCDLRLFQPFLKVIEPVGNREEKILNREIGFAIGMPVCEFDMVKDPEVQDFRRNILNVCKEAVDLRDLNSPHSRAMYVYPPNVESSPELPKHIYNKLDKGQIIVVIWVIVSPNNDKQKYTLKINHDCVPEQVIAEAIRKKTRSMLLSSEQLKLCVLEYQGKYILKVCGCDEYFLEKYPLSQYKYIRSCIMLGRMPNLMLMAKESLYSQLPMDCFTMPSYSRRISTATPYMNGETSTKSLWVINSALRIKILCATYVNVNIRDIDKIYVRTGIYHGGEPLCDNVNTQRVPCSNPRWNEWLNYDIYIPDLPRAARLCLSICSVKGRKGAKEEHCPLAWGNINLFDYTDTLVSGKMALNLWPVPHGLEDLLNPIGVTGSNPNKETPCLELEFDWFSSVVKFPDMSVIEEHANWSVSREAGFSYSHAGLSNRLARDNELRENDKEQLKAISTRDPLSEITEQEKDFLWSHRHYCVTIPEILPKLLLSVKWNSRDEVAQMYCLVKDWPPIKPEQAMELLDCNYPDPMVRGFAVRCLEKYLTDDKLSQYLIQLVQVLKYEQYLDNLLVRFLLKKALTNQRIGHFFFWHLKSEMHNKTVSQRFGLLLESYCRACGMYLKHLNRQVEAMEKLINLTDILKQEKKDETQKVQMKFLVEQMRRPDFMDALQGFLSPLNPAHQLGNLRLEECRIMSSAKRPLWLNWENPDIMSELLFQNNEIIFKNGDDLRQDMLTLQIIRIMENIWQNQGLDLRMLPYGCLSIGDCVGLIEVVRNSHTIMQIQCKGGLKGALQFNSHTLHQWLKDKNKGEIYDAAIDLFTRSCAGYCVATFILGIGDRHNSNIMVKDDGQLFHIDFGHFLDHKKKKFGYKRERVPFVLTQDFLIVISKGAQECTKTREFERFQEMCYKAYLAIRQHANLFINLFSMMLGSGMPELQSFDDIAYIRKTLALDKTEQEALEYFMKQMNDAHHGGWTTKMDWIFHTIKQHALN
PI3Kα, sequence (P27986 whole entry partner): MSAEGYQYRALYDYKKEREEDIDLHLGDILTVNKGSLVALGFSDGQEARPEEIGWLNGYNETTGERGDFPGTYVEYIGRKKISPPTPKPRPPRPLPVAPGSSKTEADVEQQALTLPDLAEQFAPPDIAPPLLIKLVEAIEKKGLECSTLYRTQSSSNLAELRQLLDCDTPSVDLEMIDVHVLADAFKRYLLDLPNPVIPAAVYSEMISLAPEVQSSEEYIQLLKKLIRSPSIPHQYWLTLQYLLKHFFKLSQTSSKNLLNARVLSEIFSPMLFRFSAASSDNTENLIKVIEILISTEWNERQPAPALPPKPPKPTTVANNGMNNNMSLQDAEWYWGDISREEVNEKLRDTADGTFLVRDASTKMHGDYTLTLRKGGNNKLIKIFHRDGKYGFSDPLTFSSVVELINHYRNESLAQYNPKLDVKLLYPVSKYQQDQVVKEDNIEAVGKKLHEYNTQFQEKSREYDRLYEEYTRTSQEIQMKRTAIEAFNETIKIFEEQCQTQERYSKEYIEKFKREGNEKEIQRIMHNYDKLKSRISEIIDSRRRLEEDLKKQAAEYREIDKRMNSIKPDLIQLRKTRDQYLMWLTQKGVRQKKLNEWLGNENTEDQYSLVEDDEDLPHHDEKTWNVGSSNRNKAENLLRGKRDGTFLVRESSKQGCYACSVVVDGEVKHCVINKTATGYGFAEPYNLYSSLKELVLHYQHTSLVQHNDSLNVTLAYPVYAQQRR
PI3Kβ, sequence (P42338 whole entry): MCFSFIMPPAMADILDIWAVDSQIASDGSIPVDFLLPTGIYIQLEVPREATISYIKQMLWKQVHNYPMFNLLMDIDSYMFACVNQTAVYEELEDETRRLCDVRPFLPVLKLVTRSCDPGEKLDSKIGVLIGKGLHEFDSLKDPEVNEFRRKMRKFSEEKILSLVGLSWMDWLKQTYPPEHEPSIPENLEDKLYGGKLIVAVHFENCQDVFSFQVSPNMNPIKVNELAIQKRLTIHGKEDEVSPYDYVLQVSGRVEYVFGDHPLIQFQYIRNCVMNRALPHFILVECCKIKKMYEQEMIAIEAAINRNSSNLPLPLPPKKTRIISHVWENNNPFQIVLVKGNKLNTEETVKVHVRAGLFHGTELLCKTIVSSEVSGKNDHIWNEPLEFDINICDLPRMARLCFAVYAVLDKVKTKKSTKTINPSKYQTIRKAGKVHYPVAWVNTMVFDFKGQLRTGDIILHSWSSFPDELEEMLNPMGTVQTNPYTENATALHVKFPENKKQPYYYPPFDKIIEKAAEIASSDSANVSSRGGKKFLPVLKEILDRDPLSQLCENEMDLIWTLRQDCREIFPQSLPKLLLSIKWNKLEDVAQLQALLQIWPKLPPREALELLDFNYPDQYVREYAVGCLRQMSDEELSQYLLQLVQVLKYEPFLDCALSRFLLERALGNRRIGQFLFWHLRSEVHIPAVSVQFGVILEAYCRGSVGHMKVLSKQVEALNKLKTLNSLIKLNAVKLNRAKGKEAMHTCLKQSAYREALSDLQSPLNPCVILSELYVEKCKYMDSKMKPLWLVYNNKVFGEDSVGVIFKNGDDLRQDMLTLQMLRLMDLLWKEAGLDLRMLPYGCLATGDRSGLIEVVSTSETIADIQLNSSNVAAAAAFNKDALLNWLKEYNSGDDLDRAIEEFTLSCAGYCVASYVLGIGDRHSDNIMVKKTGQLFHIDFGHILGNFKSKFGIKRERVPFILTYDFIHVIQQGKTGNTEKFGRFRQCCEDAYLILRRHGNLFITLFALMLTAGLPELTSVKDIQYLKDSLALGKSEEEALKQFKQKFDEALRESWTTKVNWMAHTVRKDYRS
PI3Kβ, sequence (P27986 whole entry partner): as the sequence (P27986 whole entry partner) above

Turning to `CC(C)C1C(=O)N(C)C(=O)N1c1cn2c(n1)-c1ccc(N3CCC[C@H]3C(N)=O)cc1OCC2` (stereo partly drawn) [Example 1, (2S)-1-(2-(5-isopropyl-3-methyl-2,4-dioxoimidazolidin-1-yl)-5,6-dihydrobenzo[f]imidazo [1,2-d][1,4]oxazepin-9-yl)pyrrolidine-2-carboxamide], the half-inhibitory concentration (IC50) at PI3Kα is less than 5 nM; at PI3Kβ, greater than 600 nM; on PI3Kγ, greater than 600 nM; with human tumor cells MCF-7, 0.176 µM.

Turning to `CN1C(=O)C(C2CC2)N(c2cn3c(n2)-c2ccc(N4CCC[C@H]4C(N)=O)cc2OCC3)C1=O` (stereo partly drawn) [Example 5, (2S)-1-(2-(5-cyclopropyl-3-methyl-2,4-dioxoimidazolidin-1-yl)-5,6-dihydrobenzo[f]imidazo [1,2-d] [1,4]oxazepin-9-yl) pyrrolidine-2-carboxamide], the IC50 on PI3Kα was 5 to 20 nM; in the data set with human tumor cells MCF-7, 0.373 µM; in the data set with human tumor cells HGC27, 4.07 µM.

Take `CC(C)[C@H]1C(=O)N(C2CC2)C(=O)N1c1cn2c(n1)-c1ccc(N3CCC[C@H]3C(N)=O)cc1OCC2` [Example 33, (2S)-1-(2-((5S)-3-cyclopropyl-5-isopropyl-2,4-dioxoimidazolidin-1-yl)-5,6-dihydrobenzo[f]imidazo[1,2-d] [1,4]oxazepin-9-yl)pyrrolidine-2-carboxamide]: the IC50 on PI3Kα is less than 5 nM; at PI3Kβ, greater than 600 nM; at PI3Kγ it was greater than 600 nM; with human tumor cells MCF-7, 0.047 µM; in the data set on human tumor cells HGC27, 0.267 µM. The same molecule gave a clearance in data set [1] of 11.1 mL/min/kg. For the same molecule, the AUC in data set [1] is 19800 ng·h/mL. In data set [1], this molecule had a Cmax of 1600 ng/mL.

Take `CC(C)C1C(=O)N(C2CC2)C(=O)N1c1cn2c(n1)-c1ccc(N3CCC[C@H]3C(N)=O)cc1OCC2` (stereo partly drawn) [Example 2, (2S)-1-(2-(3-cyclopropyl-5-isopropyl-2,4-dioxoimidazolidin-1-yl)-5,6-dihydrobenzo[f]imidazo[1,2-d][1,4]oxazepin-9-yl)pyrrolidine-2-carboxamide]: the IC50 was less than 5 nM at PI3Kα; greater than 600 nM on PI3Kβ; 300 to 600 nM at PI3Kγ; 0.07 µM with human tumor cells MCF-7; 0.361 µM in the data set with human tumor cells HGC27. Besides, the clearance in data set [1] was 1.98 mL/min/kg. Also, the AUC in data set [1] was 53000 ng·h/mL. The molecule also showed a Cmax in data set [1] of 4340 ng/mL.

Take `CC(C)C1C(=O)N(c2ccc(F)cc2)C(=O)N1c1cn2c(n1)-c1ccc(N3CCC[C@H]3C(N)=O)cc1OCC2` (stereo partly drawn) [Example 4, (2S)-1-(2-(3-(4-fluorophenyl)-5-isopropyl-2,4-dioxoimidazolidin-1-yl)-5,6-dihydrobenzo[f]imidazo [1,2-d][1,4]oxazepin-9-yl)pyrrolidine-2-carboxamide]: the IC50 on PI3Kα was 5 to 20 nM. The IC50 on PI3Kβ is greater than 600 nM. The IC50 at PI3Kγ was greater than 600 nM. In data set [1], this molecule yielded a clearance of 4.75 mL/min/kg, an AUC of 29100 ng·h/mL and a Cmax of 2690 ng/mL.

Take `CC(C)[C@@H]1C(=O)N(C2CC2)C(=O)N1c1cn2c(n1)-c1ccc(N3CCC[C@H]3C(N)=O)cc1OCC2` [Example 32, (2S)-1-(2-((5R)-3-cyclopropyl-5-isopropyl-2,4-dioxoimidazolidin-1-yl)-5,6-dihydrobenzo[f]imidazo[1,2-d] [1,4]oxazepin-9-yl)pyrrolidine-2-carboxamide]: the IC50 at PI3Kα was less than 5 nM; on PI3Kβ, 300 to 600 nM; on PI3Kγ, 300 to 600 nM; in the data set on human tumor cells MCF-7, 0.107 µM; with human tumor cells HGC27 it was 0.415 µM. Further, the clearance in data set [1] worked out at 1.5 mL/min/kg. The exposure (AUC) in data set [1] was 66400 ng·h/mL. For the same molecule, the Cmax in data set [1] stood at 5030 ng/mL.

A word on the IC50: it is the concentration that inhibits the measured activity by half. In general, clearance refers to the rate of elimination divided by the concentration. Low values mean inefficient removal, high ones efficient removal. One may read the AUC as the area under the concentration-time curve, a measure of exposure. Read a high AUC as high exposure. As usually defined, the Cmax is the maximum level reached in the sampled fluid or tissue.
